In PubChem BioAssay AID179 (DTP/NCI, 2004):
Activity calls are given as the source filed them.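 How the source made its calls: active means compounds giving half or more protection of infected cells from virus-caused growth loss, again on retest; inactive means the rest.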

Test system: CEM cells HIV-1 protection, formazan growth assay
Assay: NCI AIDS Antiviral Assay
Details: for IC50: measured here: growth of uninfected CEM cells
Summary of the method: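 Human CEM cells, uninfected and HIV-1-infected, exposed to five drug concentrations; growth measured by soluble formazan assay and scored as percent protection from infection, with protecting compounds retested.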

| Compound | EC50 [µM] | IC50 [µM] | outcome |
| --- | --- | --- | --- |
| CN(CCc1ccccn1)C(=S)N/N=C/c1ccccn1 | > 0.2 | 0.0251 |  |
| O=C(O)c1nc2ccccc2nc1NCc1ccc(F)cc1 | > 200 | 56.2 |  |
| N#Cc1c(CC(=O)O)cc(=O)n2c1[nH]c1ccccc12 | > 933 | 316 |  |
| c1ccc(-c2nc(-c3ccccc3SSc3ccccc3-c3nc(-c4ccccc4)nn3-c3ccccc3)n(-c3ccccc3)n2)cc1 | > 100 | > 100 |  |
| COC(=O)c1onc(-c2c(OC)cc(OC)cc2OC)c1C(=O)OC | > 141 | 115 |  |
| COC(=O)C1=C2CCC(=O)[C@@]2(C)C(OC(C)=O)C=CC1 (some centres not stated) |  |  | inactive |
| O=C1c2ccccc2C(=O)C1(Br)C(Cl)c1ccccc1 (configuration not stated) | > 200 | 3.55 |  |
| NC(=O)c1[nH]cnc1/N=N/SCC(N)C(=O)O (configuration not stated) | > 200 | 0.794 |  |
| O=c1[nH]c(=O)n(C2CC(O)C(CO)O2)cc1COCC(F)(F)F (configuration not stated) | > 251 | > 251 |  |
| O=[N+]([O-])/C(Cl)=C(/C(Cl)=C(Cl)Cl)N1CCOCC1 | > 200 | 8.71 |  |
| CCOC(=O)c1cc(C2CCN(Cc3ccccc3)C2=O)c(C(=O)/C=C(/C)N)[nH]1 (configuration not stated) | > 200 | 158 |  |
| Cc1ccccc1NC(=O)C1C(=O)N(c2ccccc2C)C(=O)/C1=N\N (configuration not stated) |  |  | inactive |
| CCOC(=O)/C(=C(\C)N)C1CC(=O)NC1=O (configuration not stated) | > 200 | 107 |  |
| CC(C)CCCC(C)[C@H]1CC[C@H]2[C@@H]3CC[C@H]4C[C@@H](CCC=C(c5cc(Cl)c(OCc6ccc(B7OC(C)(C)C(C)(C)O7)cc6)c(C(=O)OCc6ccc(B7OC(C)(C)C(C)(C)O7)cc6)c5)c5cc(Cl)c(OCc6ccc(B7OC(C)(C)C(C)(C)O7)cc6)c(C(=O)OCc6ccc(B7OC(C)(C)C(C)(C)O7)cc6)c5)CC[C@]4(C)[C@H]3CC[C@]12C (some centres not stated) | > 200 | > 200 |  |
| O=c1cc2cc(O)[nH]c(=O)c2c(O)[nH]1 |  |  | inactive |
| COc1ccc(/C=C/c2sc3ccccc3[n+]2CCCCI)cc1OC | > 200 | 7.59 |  |
| C[N+](C)([O-])CCCNc1ccnc2cccc([N+](=O)[O-])c12 | > 200 | 27.5 |  |
| CC(=O)CC[N+](C)(C)C |  |  | inactive |
| COc1cc(/C=C2/SC(c3ccccc3)N(c3ccc(Cl)cc3)C2=O)cc(OC)c1OC (configuration not stated) |  |  | inactive |
| COc1ccc(C(c2ccc(C(C)C)cc(=O)c2O)c2c(O)cc3oc(-c4ccccc4)cc(=O)c3c2O)cc1 (configuration not stated) |  |  | inactive |
| Nc1nn2cc3c(nc2c1N=Nc1ccc(Cl)cc1)CCCC3 |  |  | inactive |

| Compound | EC50 [µM] | IC50 [µM] | outcome |
| --- | --- | --- | --- |
| CCOC(=O)C(C#N)(Cc1ccc2ccccc2n1)Cc1ccc2ccccc2n1 | > 200 | > 200 |  |
| CC(C)COP(=O)(OCC(C)C)C(NS(=O)(=O)c1ccccc1)(C(F)(F)F)C(F)(F)F |  |  | inactive |
| CCOC(=O)C(NC(=O)c1[nH]cnc1/N=N/N(C)C)C(C)C (configuration not stated) | > 23.4 | > 23.4 |  |
| COc1ccc(/C=C2/C(=O)N(C(=O)c3ccc(Cl)cc3)N=C2C)cc1OC | > 35.5 | > 35.5 |  |
| COc1cccc(N)c1N | > 1170 | 18.2 |  |
| C[N+]1(Cc2ccc([N+](=O)[O-])cc2)CCC(CCCCCCCC2CC[N+](C)(Cc3ccc([N+](=O)[O-])cc3)CC2)CC1 (configuration not stated) | > 200 | 14.5 |  |
| CC(C)(C)C1COP(=O)(C(C)(C)C)OC1 (configuration not stated) | > 537 | 468 |  |
| CC1(C)CC(/C=C2/OC(=O)c3ccccc32)=C(C(N)=O)C(=O)O1 | > 83.2 | > 83.2 |  |
| O=C1C(=O)C(Br)(c2ccccc2)C(=O)C1c1ccccc1 (configuration not stated) | > 200 | > 200 |  |
| O=C(O)CC1OCC=C2CN3CCC45c6ccccc6NC4C1C2CC35 (configuration not stated) | > 85.1 | > 85.1 | inactive |
| Nc1nc(Cl)cc(NCC2(O)CC(CO)C2)n1 (configuration not stated) | > 200 | > 200 |  |
| CCOC(=O)/C(C#N)=C/c1cc2c3c(c1)CCCN3CCC2 | > 100 | > 100 |  |
| N#C/C(=C\c1ccccc1Cl)C(=O)c1ccccc1 | > 132 | 13.2 |  |
| O=c1c2c3c(sc2nc(CN2CCNCC2)n1-c1ccccc1)CCCC3 | > 100 | > 100 |  |
| COc1ccccc1CN1CC(C)N(N=Cc2c3c(O)c4c(O)c(C)c5c(c4c2O)C(=O)C(C)(O/C=C/C(OC)C(C)C(OC(C)=O)C(C)C(O)C(C)C(O)C(C)/C=C/C=C(\C)C(=O)N3)O5)C(C)C1 (configuration not stated) | > 200 | 7.76 |  |
| CCOC(=O)c1c(-c2[nH]c(C(=O)OCc3ccccc3)c(C)c2C(=O)OCC)[nH]c(C(=O)OCc2ccccc2)c1C |  |  | inactive |
| COc1cc2c(cc1OC)C(=O)/C(=C/c1ccc(O)cc1)CC2 |  |  | inactive |
| CCOP(=O)(CN1CCNCCNCC1)OCC | > 200 | > 200 |  |
| O=c1cc(SCc2ccccc2Cl)[nH]c(=O)[nH]1 | > 115 | > 115 |  |
| O=C(CC1C(=O)Nc2ccccc2S1(=O)=O)Nc1cccc(Cl)c1 (configuration not stated) | > 27.5 | > 27.5 |  |
| O=C1c2ccccc2[Se](=O)N1c1ccccc1 (configuration not stated) | 1.17 | 14.1 |  |

| Compound | EC50 [µM] | IC50 [µM] | outcome |
| --- | --- | --- | --- |
| COc1ccc(C2C3CCCC(C3=O)C(c3ccc(OC)cc3)N2N=O)cc1 (configuration not stated) | > 19.1 | > 19.1 |  |
| O=C(/C=C/c1ccccc1)c1ccc(Cl)s1 | > 200 | 12.3 |  |
| CC(=O)Oc1ccc2c(c1)Cc1cc(N=[N+]([O-])c3ccc4c(c3)Cc3cc(OC(C)=O)ccc3-4)ccc1-2 | > 200 | > 200 |  |
| C=CCN1CCC(C(=O)CC)(c2ccccc2)CC1 | > 355 | 166 |  |
| CCOC(=O)/C=C/[C@H](O)[C@@H](O)/C=C/C(=O)OCC | > 200 | 17 |  |
| C=CCC1(c2ccccc2)Oc2cccnc2-n2cccc2C1=O (configuration not stated) | > 200 | 8.91 |  |
| O=C1CC2CCC(C1)S2 | > 200 | > 200 |  |
| COC1Nc2nc3ccccc3nc2NC1OC (configuration not stated) | > 363 | 66.1 |  |
| CC[C@]1(Cc2ccc(OC)c(OC)c2)[C@@H]2C[C@@H](C3OCCO3)ON2O[C@H](OC2CCCC2(c2ccccc2)c2ccccc2)[C@@H]1OC(C)=O (some centres not stated) | > 200 | 21.9 |  |
| CC(=O)NC1C(OC(C)C(=O)NC(C(=O)NC(CCC(=O)NCCCNC2c3ccccc3Nc3cccc([N+](=O)[O-])c32)C(N)=O)C(C)C)C(O)C(CO)OC1(C)OCc1ccccc1 (configuration not stated) | > 10 | 1.74 |  |
| CCn1c(-c2ccc(C)cc2)cs/c1=N\C(P(=O)(O)O)P(=O)(O)O | > 50.1 | > 50.1 |  |
| CN(C)CCCCN1c2ccccc2Sc2ccc(N=[N+]=[N-])cc21 | > 200 | 3.24 |  |
| C[C@@H]1Cc2c(-c3cc(-c4cc(-c5c(O)cc(O)c6c5C[C@@H](C)N[C@@H]6C)c5ccccc5c4O)c(O)c4ccccc34)c(O)cc(O)c2[C@@H](C)N1 | 115 | > 200 |  |
| Cc1ccc(-n2c(C)n[nH]c2=O)cc1 | > 200 | > 200 |  |
| C=CCNC(=S)NNC(=O)c1c(C)nc2sccn12 | > 851 | 813 |  |
| C[C@H]1[C@@H](c2ccccc2)C12C(=O)NC(=O)NC2=O | > 200 | 105 |  |
| CCOC(=O)C1([N+](=O)[O-])[C@@H]2CCCC[C@@H]21 (some centres not stated) | > 316 | > 316 |  |
| O=C1c2cccc3cccc(c23)C(=O)N1c1nccs1 | > 50.1 | > 50.1 |  |
| C=CCC12CC(COc3ccccc3C(N)=O)OC1=Nc1ccccc1NC2=O (configuration not stated) | > 200 | > 200 |  |
| CC1(C(=O)Nc2ccccc2)CC2(C)CC(C)(C1)C(O)NC2=O (configuration not stated) |  |  | inactive |
| COC(=O)/C=C/C1CC(CCCOc2ccccc2)OC(c2ccccc2)O1 (configuration not stated) | > 66.1 | > 66.1 |  |

| Compound | EC50 [µM] | IC50 [µM] | outcome |
| --- | --- | --- | --- |
| CCCCCC(/C=N/NC(N)=S)C(O)(C(F)(F)F)C(F)(F)F (configuration not stated) | > 200 | 30.2 |  |
| CC(=O)CCNc1ccc(-c2cc(-c3ccc(N(C)C)cc3)nc3ccc4ccccc4c23)cc1 | > 200 | 102 |  |
| COc1ccc(/C=C/C(=O)c2sc(NC(=S)NC(=O)c3ccccc3F)nc2C)cc1OC | > 74.1 | > 74.1 |  |
| Cc1cc(-c2ccccn2)oc(=O)c1NC(=O)c1ccccc1 | > 200 | 30.2 |  |
| Cc1[nH]cc2c1C(c1ccccc1F)=NCC(=O)N2 | > 229 | > 229 |  |
| C=CCN(N=O)C(=O)N(CCCCC(NC(C)=O)C(=O)NCc1ccccc1)Cc1ccccc1 (configuration not stated) | > 28.2 | > 28.2 |  |
| Cc1cccc([B-]23OCC[N+]2(CNC(=O)C2=C(O)C4(O)C(=O)C5=C(O)c6c(O)cccc6C(C)(O)C5CC4C(N(C)C)C2=O)CCO3)c1 (configuration not stated) | > 38.9 | > 38.9 |  |
| O=C1c2c(nc3ccccc3c2-c2ccccc2)CN1Nc1ccccn1 | > 141 | > 141 |  |
| O=C1N[C@@H](O)[C@@H]2ON=C(c3ccccc3)[C@H]12 | > 1150 | > 1150 |  |
| NS(=O)(=O)c1ccc(CNC(=O)c2ccccc2SC(=O)Oc2ccc([N+](=O)[O-])cc2)cc1 | 1.17 | 36.3 |  |
| Cc1c(COC(=O)NC(C)C)c(COC(=O)NC(C)C)c2n1CS(=O)(=O)C2 | > 200 | > 200 |  |
| CC(O)c1nc2c3ccccc3ccc2n1C (configuration not stated) | > 776 | 389 |  |
| COC(=O)CCC(=O)c1ccc2c(c1)CCC2 | > 200 | > 200 |  |
| C[CH2][Sn]([CH2]C)([O]C(=O)C(OC(C)=O)c1ccccc1)[O]C(=O)C(OC(C)=O)c1ccccc1 (configuration not stated) | > 229 | 2.69 |  |
| COc1cc(C(=O)N2CCc3c([nH]c4c([N+](=O)[O-])c(OC)ccc34)C2C)cc(OC)c1OC (configuration not stated) |  |  | inactive |
| C[n+]1cn(-c2ccc([N+](=O)[O-])cn2)c2ccccc21 | > 200 | 170 |  |
| Cc1[nH]nc2c(N(C)C)ncnc12 | > 200 | 170 |  |
| CCOP(=O)(CC(=O)c1cc2ccccc2[nH]1)OCC | > 851 | 437 |  |
| CC(C)(C)C(=O)/C=C/c1ccc([N+](=O)[O-])cc1 |  | 10.2 | inactive |
| Cc1nc(N)c(N2CCN(C#N)CC2)c(=O)[nH]1 | > 200 | > 200 |  |
| O=C1NP23(OCCO2)Oc2ccccc2C3(C(F)(F)F)O1 (configuration not stated) | > 776 | 389 |  |
